Consider five compounds from ChEMBL document CHEMBL1137325, “Multitarget-directed drug design strategy: a novel molecule designed to block epidermal growth factor receptor (EGFR) and to exert proapoptotic effects” (J Med Chem, 2006).

Structures are written as SMILES. Calls of active or inactive are those of the source. The rule behind the calls is not given here.

Test [1] has as its system A-431. Kind of test: Induction of necrosis in human A431 cells measured as increase of LDH release. It is filed as functional, cell-based. Background: LDH leaks from cells whose membrane has failed.
Test [2] deals with Epidermal growth factor receptor (Homo sapiens, UniProt P00533). Kind of test: Inhibition of EGFR tyrosine kinase activity.
Epidermal growth factor receptor, sequence (P00533 whole entry): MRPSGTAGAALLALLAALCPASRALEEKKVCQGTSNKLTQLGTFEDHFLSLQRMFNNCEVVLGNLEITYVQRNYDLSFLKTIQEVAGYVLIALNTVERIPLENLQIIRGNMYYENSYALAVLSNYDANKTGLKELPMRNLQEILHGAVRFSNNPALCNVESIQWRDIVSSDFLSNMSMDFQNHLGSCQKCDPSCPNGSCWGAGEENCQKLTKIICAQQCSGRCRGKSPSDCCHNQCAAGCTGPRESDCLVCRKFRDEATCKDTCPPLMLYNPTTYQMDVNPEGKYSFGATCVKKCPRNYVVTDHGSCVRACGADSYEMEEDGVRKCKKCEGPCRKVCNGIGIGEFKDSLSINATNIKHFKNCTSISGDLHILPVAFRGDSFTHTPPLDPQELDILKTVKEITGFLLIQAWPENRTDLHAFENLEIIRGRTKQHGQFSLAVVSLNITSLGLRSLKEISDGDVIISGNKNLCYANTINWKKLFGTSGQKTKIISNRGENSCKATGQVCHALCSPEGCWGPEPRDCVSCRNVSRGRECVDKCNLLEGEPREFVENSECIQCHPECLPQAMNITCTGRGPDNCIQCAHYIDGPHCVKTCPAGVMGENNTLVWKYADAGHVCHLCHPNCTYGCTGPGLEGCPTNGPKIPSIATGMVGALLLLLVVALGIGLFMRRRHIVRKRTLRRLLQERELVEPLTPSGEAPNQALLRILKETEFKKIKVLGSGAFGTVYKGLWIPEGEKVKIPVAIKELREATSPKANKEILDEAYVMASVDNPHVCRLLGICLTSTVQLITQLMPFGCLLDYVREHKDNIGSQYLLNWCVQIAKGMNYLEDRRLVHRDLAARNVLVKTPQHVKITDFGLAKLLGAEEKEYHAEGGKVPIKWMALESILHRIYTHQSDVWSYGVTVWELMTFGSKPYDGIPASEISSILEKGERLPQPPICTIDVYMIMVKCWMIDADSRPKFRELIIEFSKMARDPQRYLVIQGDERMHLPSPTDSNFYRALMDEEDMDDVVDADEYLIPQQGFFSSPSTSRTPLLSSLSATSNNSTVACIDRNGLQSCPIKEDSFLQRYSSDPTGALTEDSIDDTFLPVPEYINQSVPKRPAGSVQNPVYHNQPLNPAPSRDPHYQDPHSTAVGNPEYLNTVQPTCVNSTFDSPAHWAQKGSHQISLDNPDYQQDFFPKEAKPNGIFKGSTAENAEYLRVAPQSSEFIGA
Test [3] deals with A-431. Kind of test: Antiproliferative activity against human A431 cells after 72 hrs by MTT assay. To be noted: A-431, 72 h. Background: Tetrazolium dyes change colour on reduction, which living cells bring about.
Test [4] relates to A-431. The test is described as follows: Reversibility of antiproliferative activity against human A431 cells after recovery for 68 hrs by MTT assay. To be noted: A-431, 68 h.
The subject of test [5] is A-431. The test is described as follows: Reversibility of antiproliferative activity against human A431 cells after recovery for 68 hrs in presence of 50 uM DTT by MTT assay. The note with it: A-431, 68 h.
Test [6] concerns A-431. The test is described as follows: Reversibility of antiproliferative activity against human A431 cells after recovery for 68 hrs in presence of 100 uM DTT by MTT assay. The note with it: A-431, 68 h.
Test [7] deals with A-431. The test is described as follows: Induction of apoptosis in human A431 cells measured as increase in DNA fragmentation. It is filed as functional, cell-based.

As for `COc1cc2ncnc(Nc3cccc(Br)c3)c2cc1OC`, the outcome in test [1] was inactive.
For orientation: IC50 means the concentration needed to halve the response being measured. Take `O=C(CC1CCSS1)Nc1ccc2ncnc(Nc3cccc(Br)c3)c2c1` (stereo not drawn): the values for the half-inhibitory concentration (IC50) in test [2] and in test [3] were more than 3 µM and 13.7 µM, respectively.
`C=CC(=O)Nc1ccc2ncnc(Nc3cccc(Br)c3)c2c1`: the result in test [1] was inactive.
Regarding `O=C(Nc1ccc2ncnc(Nc3cccc(Br)c3)c2c1)C1CCSS1` (stereo not drawn), the IC50 in test [2] stood at 0.06 µM; in test [3], 7.9 µM; in test [4], 9.23 µM; in test [5], 22.4 µM; in test [6] it was 28.1 µM. Further, in test [7], the Activity entry was “Dose-dependent effect”. The result in test [1] was inactive.
As for `O=C(CCCCC1CCSS1)Nc1ccc2ncnc(Nc3cccc(Br)c3)c2c1` (stereo not drawn), the IC50 in test [2] is more than 3 µM; in test [3], 21.6 µM.
